The test system of experiment [1] is TNBS induced colitis. The experiment in a line: Trinitrobenzenesulfonic acid (TNBS) Induced Colitis, rats. The format is in vivo, Male Wistar rats. The note with it: rat. An excerpt:
In Vivo Model: Trinitrobenzenesulfonic acid (TNBS) Induced Colitis The TNBS model of experimental colitis (Bobin-Dubigeon, C., Collin, X., Grimaud, N., Robert, J-M., Guillaume Le Baut, G., and Petit, J-Y. Effects of tumour necrosis factor-a synthesis inhibitors on rat trinitrobenzene sulphonic acid-induced chronic colitis. Eur. J. […] These symptomatic signs in the above—mentioned models are similar to what occur in human colitis. Male Wistar rats (200-250 g) are inoculated with 500 microliters of a solution of 10 to 20 mg of TNBS in 30% ethanol delivered intracolonically via catheter or ball-tipped gavage needle to the 8th cm from the anus. When Balb/c female mice (8-12 weeks of age) were used, the inoculation volume was 50 microliters containing 2-3 mg of TNBS in 30% ethanol delivered intracolonically via catheter or ball-tipped gavage needle to the 4th cm from the anus. During the ensuing 7 days, test animals were administered a preparation of an experimental compound. This material may be administered orally, subcutaenously or intraperitoneally, once or twice daily. At the end of this period, the animals were euthanized and their colons were collected for further analysis. Among the parameters analyzed were the length of the colon starting from the anus to the top of the cecum, the weight of the colon, the consistency of any stools found within the colon, the presence or absence of intraperitoneal adhesions on the serosal surfacr of the intestin, and the gross macroscopic appearance of the colon. […] In rats, the distal colon between the 5th and the 8th centimeter is dissected and placed in 10% neutral buffered formalin for later histological analysis. In mice, the 1st to the 4th cm was collected for histological analyses. For the following parameters—colon length, colon weight, stool consistency and appearance and macroscopic damage—a scoring system was used to describe the changes. The four scores for each animal were added to provide a Total Score. […] For the presence of blood in stool, one point was added to scores <3. […] Histological analyses of tissues consisted of staining paraffin-embedded tissue sections with hematoxylin-eosin dye. Epithelial damage scores were determined as the fraction of the tissue section showing damaged epithelium. […] Statistic analyses for these experiments performed with Graphpad Prism 4.0, using ANOVA, with Dunnets or Bonferroni's multiple comparisons test.

The target of experiment [2] is T1, α4β1 (Homo sapiens, UniProt P05556+P13612).
T1 construct: Ramos Cell Adhesion Assay (α4β1 Mediated Adhesion/VCAM-1); endogenous in cells; host or cells: Ramos cells
Nature of the experiment: Ramos Cell Adhesion Assay (α4β1 Mediated Adhesion/VCAM-1). Type of experiment: cell-based. The following applies: Ramos cell adhesion to hVCAM-1; read-out: α4β1 IC50. The method, boiled down: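 Plates coated overnight at 4° C with recombinant hVCAM-1 at 4.0 μg/mL, pH 9.0, then blocked in PBS/1% BSA. Calcein AM-labeled Ramos cells added with compounds and left to adhere 1 h at room temperature; after washing, cells lysed in 1 M Tris pH 8.0/1% SDS.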

The test system of experiment [3] is circulating leukocytes. The experiment in a line: In Vivo Model for Leukocytosis. The following applies: bled 1-1.5 h after administration. Details: species or system Balb/c mice. An excerpt: In Vivo Model for Leukocytosis
Leukocytosis is the increase in circulating white blood cells (leukocytes). This can be brought about by preventing leukocyte binding to counter-receptor adhesion molecules expressed on high endothelial venules. This cell adhesion occurs between immunoglobulin superfamily molecules and integrins. Relevant examples of these paired interactions include […] Adhesion Molecule-1 and AlphaL Beta2 integrin, Vascular Cell Adhesion Molecule-1 and α4β1 integrin, and Mucosal Addressin Cell Adhesion Molecule-1 and α4β7 integrin, respectively.
In this model, a compound that antagonizes these leukocyte-endothelial interactions will cause an increase in circulating leukocytes, defined as leukocytosis, as measured at 1-1.5 h post-administration. This leukocytosis is indicative that normal lymphocyte or leukocyte emigration from the peripheral circulation was prevented. Similar emigration of cells out of the circulation into inflamed tissues is responsible for the progression and maintainance of the inflammatory state. Leukocytosis is an indication that lymphocyte and leukocyte extravasation is prevented, and is predictive of general anti-inflammatory activity.
One week prior to being tested, 7-10 week old female Balb/c mice, n=8 per group, were bled and randomized according to leukocyte counts. One week later, the mice were adminstered test compound orally or subcutaneously and then bled 1-1.5 h after drug administration, approximately 1 h after the peak blood concentration of the compound occurred. Whole blood, 250-350 microliters, was collected from each mouse into potassium-EDTA serum collection tubes (Becton-Dickenson) and mixed to prevent clotting.
Cell counts and differential counts on the whole blood preparation were performed using an Advia 120 Hematology System (Bayer Diagnostics). Cell counts as total leukocytes and as total lympohcytes were made and compared to counts made from mice dosed with vehicle only. Data were reported as percent of vehicle control for lymphocyte counts and total leukocyte counts.
Statistical analyses were performed using ANOVA with Dunnet's multiple comparison test.

Experiment [4] relates to DSS induced colitis. The experiment in a line: Dextran Sulfate Sodium (DSS) Induced Colitis. Type of experiment: in vivo, Balb/c female mice and C57Black/6 mice. An excerpt:
In Vivo Model for Colitis: Dextran Sulfate Sodium (DSS) Induced Colitis Inflammatory bowel diseases such as ulcerative colitis and Crohn's disease are characterized by diminished intestinal barrier function, apparent inflammatory damage that may include erosive loss of intestinal mucosa, and inflammatory infiltrates in the mucosa and submucosa. […] Among the many possible chemicals used are dextran sulfate sodium (DSS) and trinitrobenzene sulfonic acid (TNBS). The dextran sulfate sodium model of experimental colitis is characterized by a shrinkage of the colon's length, macrosopic inflammatory damage, diarrhea, a discontinuous pattern of mucosal epithelial damage in the distal colon with infiltration of inflammatory cells that include macrophages and neutrophils into the mucosa and submucosa (Blumberg, R. S., Saubermann, L. J., and Strober, W. Animal models of mucosal inflammation and their relation to human inflammatory bowel disease. Current Opinion in Immunology, 11: 648-656, 1999; […]., and Nakaya, R. A novel method of induction of reliable experimental acute and chronic colitis in mice. […] Cooper, […]., and […]. Clinicopathologic study of dextran sulfate sodium experimental murine colitis. Lab Invest., 69: 238-249, 1993; […]., Bajaj-Elliott, M., MacDonald, […]., and Buchler, M. W. Characterization of acute murine dextran sodium sulphate colitis: Cytokine profile and dose dependency. Digestion, 62: 240-248, 2000; […]., Husband, A. J., and Doe, W. F. The inflammatory infiltrate in the acute stage of the dextran sulphate sodium induced colitis: B cell response differs depending on the percentage of DSS used to induce it. BMC Clinical Pathology, 1: 3-13, 2001; and Diaz-Granados, Howe, K., Lu, J, and […]. Dextran sulfate sodium-induced colonic histopathology, but not altered epithelial ion transport, is reduced by inhibition of phosphodiesterase activity. Amer. J. Pathology, 156: 2169-2177, 2000). Balb/c female mice and […]/6 mice were used in these studies. […] When […]/6 mice were used, a solution of tap water containing 4% DSS was used. During the ensuing 7-day period, test animals were administered a preparation of an experimental compound. This material may be administered orally or intraperitoneally or subcutaneously, once or twice daily. At the end of this period, the animals were euthanized and their colons were collected for further analysis. Among the parameters analyzed were the length of the colon starting from the anus to the top of the cecum, the consistency of any stools found within the colon, and the gross macroscopic appearance of the colon. The distal colon between the 1st and the 4th centimeter was removed and placed in 10% neutral buffered formalin for later histological analysis. For the following parameters, colon length, stool consistency and appearance, and macroscopic damage a scoring system is used to describe the changes. […] Thus, […] Histological analyses of tissues consisted of staining paraffin-embedded tissue sections with hematoxylin-eosin dye. Epithelial damage scores were determined as the fraction of the tissue section showing damaged epithelium. […] Statistical analysis performed in Graphpad Prism 4.0 using ANOVA with Dunnet's or Bonferroni's multiple comparison's test.

In experiment [5] the test system is eosinophil peroxidase levels in ear punches. The experiment in a line: PMA-Induced Inflammation in Mouse Ear Skin and Measurement of Eosinophil Peroxidase. The format is in vivo, BALB/C mice. The note with it: total dose 5 mg/kg po bid; ear punches 24 h after PMA; 5 mg/kg. As for the experimental part: Phorbol 12-Myristate 13-Acetate (PMA)-Induced Inflammation in Mouse Ear Skin and Measurement of Eosinophil Peroxidase
Phorbol 12-myristate 13-acetate (PMA) when applied to skin, generates a vigorous recruitment of immune cells to the site of application. Over a 24 hour period, there is accumulation of fluid and cells to the inflamed site, and thus is a general indicator of an inflammatory response. Among the recruited cells are eosinophils and neutrophils. Eosinophils can migrate into an inflamed or infected tissue via alpha 4 beta 1 integrin interactions with vascular cell adesion molecule-1 (VCAM-1) counter-receptors on vascular endothelial cells, and via alpha 4 beta 7 integrin to mucosal addressin cellular adhesion molecule on vascular endothelial cells in the gastrointestinal tract and mesenteric system. The recruited esoinophils can be quantified by measuring the presence of eosinophil peroxidase in a sample of the homogenized tissue.
Female BALB/C mice are ordered at 6 weeks of age and 16-18 grams from Charles River were used between 6-10 weeks of age. The animals were randomly assigned to groups of 10 (5/box) and housed in groups in plastic cages in a room with 12 h light-dark cycle and controlled temperature and humidity. They received food and water ad libitum.
Phorbol 12-myristate 13-acetate (PMA) was dissolved as 5 mg per mL stock in dimethyl sulfoxide (DMSO) and stored frozen as 20 microliter aliquots. For application to mouse ears, each aliquot was diluted in 2 mL with acetone.
The right ear of each mouse was treated topically with 20 microliters of acetone solution (10 microliters to each side of the ear) containing either 1 microgram of phorbol 12-myristate 13-acetate (PMA) or acetone alone.
Drugs that were tested orally were administered at −1 and +3 hours relative to PMA application.
Mice were sacrificed 24 h after PMA application. The right ear was punched with a 6 mm tissue punch and the tissue was placed in a tube on dry ice and kept frozen until extraction.
One tablet of phosphate citrate buffer was dissolved with urea hydrogen peroxide in 100 ml of water in which one tablet containing 60 mg of o-phenylenediaminedihydrochloride was added.
Ear tissue samples were homogenized in 2 ml of HTAB for 15 sec at speed 5.5 with a Polytron (large head) (Brinkman Instruments). The homogenate was stored at −20° C. until assayed. […]
Samples were typically tested at either a 1:2 or 1:4 dilution made with HTAB. […] Absorbance was read at 490 nm for the specific with subtraction of a 650 nm noise signal using a Thermomax 96-well spectrophotmetric plate reader (Molecular Devices). […]
The inhibition of PMA-induced ear edema was measured by eosinophil peroxidase levels in ear punches. […]

The mark [6] stands for this setting: 30 mg/kg po bid, C57 Black/6 mice.
[7] abbreviates: 60 mg/kg po bid, C57 Black/6 mice.

SMILES strings stand for the structures. “And” between values parts separate entries of the source, which are not always exact repeats. Equal values may be shown once.

T1 sequence (P13612 34-1032): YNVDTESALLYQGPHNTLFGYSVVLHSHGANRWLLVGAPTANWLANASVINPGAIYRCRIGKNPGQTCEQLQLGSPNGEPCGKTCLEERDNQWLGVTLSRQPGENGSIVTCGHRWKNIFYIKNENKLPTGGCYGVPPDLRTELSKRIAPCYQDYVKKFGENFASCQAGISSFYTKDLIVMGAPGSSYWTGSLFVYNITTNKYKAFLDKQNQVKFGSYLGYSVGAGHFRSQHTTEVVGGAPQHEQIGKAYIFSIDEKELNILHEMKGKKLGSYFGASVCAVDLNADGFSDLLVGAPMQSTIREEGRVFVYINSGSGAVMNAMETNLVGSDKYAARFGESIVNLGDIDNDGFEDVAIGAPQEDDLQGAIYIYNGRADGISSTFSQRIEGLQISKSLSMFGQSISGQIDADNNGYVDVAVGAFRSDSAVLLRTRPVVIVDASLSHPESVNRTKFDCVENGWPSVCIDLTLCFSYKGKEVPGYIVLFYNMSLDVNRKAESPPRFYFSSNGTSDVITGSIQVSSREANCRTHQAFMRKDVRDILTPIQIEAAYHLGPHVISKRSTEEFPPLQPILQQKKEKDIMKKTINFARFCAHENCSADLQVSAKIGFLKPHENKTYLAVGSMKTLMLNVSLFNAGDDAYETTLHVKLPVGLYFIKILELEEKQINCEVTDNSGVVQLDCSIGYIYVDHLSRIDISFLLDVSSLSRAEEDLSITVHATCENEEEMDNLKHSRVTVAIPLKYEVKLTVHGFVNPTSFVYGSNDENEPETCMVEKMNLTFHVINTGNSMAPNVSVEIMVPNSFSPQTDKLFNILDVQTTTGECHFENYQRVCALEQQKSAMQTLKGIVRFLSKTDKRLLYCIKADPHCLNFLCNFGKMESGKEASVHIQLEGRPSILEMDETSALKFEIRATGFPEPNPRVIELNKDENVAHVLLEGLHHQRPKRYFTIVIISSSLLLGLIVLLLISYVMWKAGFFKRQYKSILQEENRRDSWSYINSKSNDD
T1 sequence (P05556 21-798): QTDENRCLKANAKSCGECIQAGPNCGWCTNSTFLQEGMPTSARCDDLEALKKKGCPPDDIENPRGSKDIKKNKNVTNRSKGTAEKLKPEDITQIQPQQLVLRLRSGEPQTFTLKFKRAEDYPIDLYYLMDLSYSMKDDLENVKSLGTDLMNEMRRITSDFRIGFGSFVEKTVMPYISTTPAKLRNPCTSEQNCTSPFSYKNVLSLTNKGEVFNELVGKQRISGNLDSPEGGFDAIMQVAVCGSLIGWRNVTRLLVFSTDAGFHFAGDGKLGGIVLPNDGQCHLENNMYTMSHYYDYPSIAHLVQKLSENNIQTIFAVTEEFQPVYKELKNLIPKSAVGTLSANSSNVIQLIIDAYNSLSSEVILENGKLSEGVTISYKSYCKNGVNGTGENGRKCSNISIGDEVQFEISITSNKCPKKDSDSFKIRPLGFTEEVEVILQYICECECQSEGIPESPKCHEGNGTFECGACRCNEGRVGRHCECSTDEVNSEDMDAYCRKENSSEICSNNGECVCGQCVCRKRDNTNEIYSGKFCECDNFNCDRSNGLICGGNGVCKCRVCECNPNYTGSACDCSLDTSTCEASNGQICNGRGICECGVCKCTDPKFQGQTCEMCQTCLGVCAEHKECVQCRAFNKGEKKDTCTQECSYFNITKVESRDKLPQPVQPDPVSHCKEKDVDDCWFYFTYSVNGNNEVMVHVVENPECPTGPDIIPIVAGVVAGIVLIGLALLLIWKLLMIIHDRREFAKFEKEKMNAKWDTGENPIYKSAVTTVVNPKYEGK

As to `COc1cnn(C)c(=O)c1-c1ccc(C[C@H](NC(=O)c2cc(F)ccc2Cl)C(=O)OCCO)cc1` [Cpd 2], in experiment [1] (30 mg/kg po bid), the “% Inhibition of Epithelial Damage Score” value was found to be 10.25% and the “% Inhibition of Total Macroscopic Score” value is recorded as −0.885%. Also, the half-inhibitory concentration (IC50) in experiment [2] was more than 5 µM.

As for `COc1cnn(CCO)c(=O)c1-c1ccc(C[C@H](NC(=O)OC(C)(C)C)C(=O)OCCO)cc1` [Cpd 231], the “Lymphoycte Counts % of Vehicle Control” value in experiment [3] (3 mg/kg po) was found to be 114.5%; in experiment [3] (10 mg/kg po), 94.0%; in experiment [3] (30 mg/kg po), 88.7%. For the same compound, the figures for the “Total Leukocyte Count % of Vehicle Control” value in experiment [3] (3 mg/kg po), in experiment [3] (10 mg/kg po) and in experiment [3] (30 mg/kg po) were 110.7%, 98.0% and 86.9%, respectively. The “% Inhibition of Epithelial Damage Score” value in experiment [1] (30 mg/kg po bid) was 24.69%; in experiment [1] (60 mg/kg po bid), 38.64%; in experiment [4] (setting [6]), 23.91%; in experiment [4] (setting [7]), 53.9%; in experiment [4] (60 mg/kg po bid, balb/c mice) it was 36.5%. The “% Inhibition of Total Macroscopic Score” value is reported as 19.33% in experiment [1] (30 mg/kg po bid); 5.455% in experiment [1] (60 mg/kg po bid); 13.4% in experiment [4] (setting [6]); 43.8% in experiment [4] (30 mg/kg po bid, balb/c mice); 23.4% in experiment [4] (setting [7]); 47.7% in experiment [4] (60 mg/kg po bid, balb/c mice).

With `C[C@@H]1C[C@H]2[C@@H]3CCC4=CC(=O)C=C[C@]4(C)[C@@]3(F)[C@@H](O)C[C@]2(C)[C@@]1(O)C(=O)CO` [dexamethasone], the “% Inh. of Eosinophil Peroxidase” value in experiment [5] is 83.6% and 109.0%.

The values above are taken from patent US20050192279A1, “Pyridazinones as antagonists of alpha4 integrins” (priority 2004, published 2005).
